Among the test systems are M14; NCI-H23; HCT-15; TK-10; U-251; A498; NCI-H522; ACHN; MDA-MB-435; CAKI-1; NCI/ADR-RES; OVCAR-8; DU-145; MOLT-4; SK-MEL-5; NCI-H226; OVCAR-5; Hs-578T; SK-OV-3; MCF7.
What all share (test): NCI anticancer screen, dose series, 48 h

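Results reflect a 48-hour exposure of cells in 96-well plates to compound at five concentrations. The concentration for 50% growth inhibition is given as GI50.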 Calls of active or inactive are those of the source. Cut-off read from the data, not from the text of the source: active = GI50 up to about 1.1 µM and inactive = higher. Bounds are passed on as bounds.

Turning to `Cc1cc(O)c(C(C)C)cc1NC(=O)Nc1cccc2ccccc12`, the GI50 in the assay with M14 is 18 µM (inactive); in the assay on NCI-H23 it was 19.3 µM (inactive); with HCT-15, 20.7 µM; in the assay on TK-10 it was 18.2 µM (inactive); in the assay on U-251, 17.2 µM (inactive); in the assay on A498 it was 13.1 µM (inactive). The GI50 with NCI-H522 is 15.1 µM (inactive); with ACHN, 14.6 µM (inactive); in the assay on MDA-MB-435 it was 15.9 µM (inactive); with CAKI-1 it was 16.2 µM (inactive); in the assay with NCI/ADR-RES, 20.9 µM (inactive); in the assay with OVCAR-8, 30.8 µM (inactive). For the same compound, the GI50 is 15 µM (inactive) in the assay with DU-145; 33.8 µM (inactive) in the assay with MOLT-4; 12.5 µM (inactive) with SK-MEL-5; 19.5 µM (inactive) in the assay on NCI-H226; 17.8 µM (inactive) in the assay on OVCAR-5; 13.4 µM (inactive) in the assay with Hs-578T.

On to `NCC1CCCCC1.O=C(O)NCC1CCCCC1`, for which the GI50 in the assay on M14 is 36.6 µM (inactive); with NCI-H23, 23.3 µM (inactive); in the assay on HCT-15, 23.8 µM; with TK-10, 30 µM (inactive); in the assay on U-251, 7.45 µM (inactive); with A498 it was 15 µM (inactive). For the same compound, the GI50 with NCI-H522 was 10.7 µM (inactive); in the assay on ACHN it was 23.9 µM (inactive); in the assay with MDA-MB-435, 22.9 µM (inactive); in the assay on CAKI-1 it was 28.2 µM (inactive); in the assay with NCI/ADR-RES, 26 µM (inactive); with OVCAR-8, 13.2 µM (inactive). The GI50 was 21.1 µM (inactive) in the assay with DU-145; 15.2 µM (inactive) with MOLT-4; 15.3 µM (inactive) in the assay on SK-MEL-5; 17.9 µM (inactive) in the assay with NCI-H226; 31.9 µM (inactive) in the assay with OVCAR-5.

As to `NCCSC1(O)C(=O)c2ccccc2-c2ccccc21` (centres undefined), the GI50 with M14 was 1.02 µM (active); with NCI-H23, 0.143 µM (active); in the assay on HCT-15, 1.49 µM; in the assay on TK-10, 1.73 µM (inactive); in the assay with SK-OV-3, 1.63 µM (inactive); in the assay with U-251, 0.713 µM (active). Besides, the GI50 is 1.55 µM (inactive) in the assay with NCI-H522; 1.05 µM (active) in the assay with ACHN; < 0.01 µM (active) with MDA-MB-435; 0.272 µM (active) with NCI/ADR-RES; 0.262 µM (active) in the assay on OVCAR-8; 1.83 µM (inactive) in the assay on MCF7. Further, the GI50 in the assay on DU-145 is 1.06 µM (active); in the assay on MOLT-4, 0.181 µM (active); with SK-MEL-5, 0.265 µM (active); with NCI-H226, 1.33 µM (inactive); with OVCAR-5, 1.53 µM (inactive); in the assay with Hs-578T, 1.41 µM (inactive).

For the compound `Nc1nc(N)c2c(-c3ccccc3)ccnc2n1`, the GI50 in the assay on NCI-H23, in the assay on TK-10, with SK-OV-3, in the assay on U-251, in the assay on A498 and in the assay on NCI-H522 was > 100 µM (inactive) in each case. In addition, the GI50 is > 100 µM (inactive) in the assay with ACHN; > 100 µM (inactive) with MDA-MB-435; > 100 µM (inactive) with CAKI-1; > 100 µM (inactive) in the assay on MCF7; > 100 µM (inactive) in the assay with DU-145; > 10 µM (inactive) in the assay with MOLT-4. Further, the GI50 is > 100 µM (inactive) with SK-MEL-5, 40.4 µM (inactive) in the assay on NCI-H226 and > 100 µM (inactive) in the assay on OVCAR-5.

Take `C=CCN1CC2CN=NC2(C#N)C1` (centres undefined): the GI50 with NCI-H23 was > 100 µM (inactive); with HCT-15 it was more than 100 µM; in the assay with TK-10, > 100 µM (inactive); in the assay on U-251, > 100 µM (inactive); in the assay on A498 it was > 100 µM (inactive); in the assay on NCI-H522, > 100 µM (inactive). For the same compound, the GI50 in the assay with ACHN, in the assay on MDA-MB-435, in the assay on CAKI-1, in the assay with NCI/ADR-RES, in the assay on OVCAR-8 and in the assay with MCF7 was > 100 µM (inactive) throughout. The GI50 in the assay with DU-145, with MOLT-4, in the assay with SK-MEL-5, in the assay with NCI-H226 and with OVCAR-5 was > 100 µM (inactive) each time.

As to `NNC(=S)N1CCN(C(=S)NN)CC1`, the GI50 in the assay on M14 is 13.7 µM (inactive); in the assay on NCI-H23, > 100 µM (inactive); in the assay on SK-OV-3, > 100 µM (inactive); with U-251, > 100 µM (inactive); in the assay with A498, 4.97 µM (inactive); in the assay with NCI-H522 it was > 100 µM (inactive). For the same compound, the GI50 in the assay with ACHN, in the assay on MDA-MB-435, in the assay with CAKI-1, in the assay with DU-145, in the assay with MOLT-4 and in the assay with SK-MEL-5 was > 100 µM (inactive) each time. The GI50 in the assay on OVCAR-5 and with Hs-578T was > 100 µM (inactive) in each case.

For `CC(C)NC(=O)OCc1c(COC(=O)NC(C)C)n(C)c2c1ccc1cc(Cl)c(Cl)cc12`, the GI50 in the assay on M14 was 15.5 µM (inactive); with NCI-H23, 12.8 µM (inactive); in the assay on HCT-15 it was 12.7 µM; in the assay with TK-10 it was 5.43 µM (inactive); with SK-OV-3, 21.6 µM (inactive); in the assay with U-251, 15.9 µM (inactive). In addition, the GI50 was 1.75 µM (inactive) in the assay with A498; 1.49 µM (inactive) in the assay on NCI-H522; 11.7 µM (inactive) in the assay on ACHN; 6.43 µM (inactive) in the assay on MDA-MB-435; 2.09 µM (inactive) with CAKI-1; 15.9 µM (inactive) with NCI/ADR-RES. The GI50 in the assay on OVCAR-8 is 11.6 µM (inactive); in the assay on MCF7, 3.28 µM (inactive); in the assay with MOLT-4, 3.97 µM (inactive); in the assay with SK-MEL-5, 16.5 µM (inactive); in the assay on NCI-H226, 3.78 µM (inactive); in the assay with OVCAR-5 it was 15.4 µM (inactive). Moreover, the GI50 in the assay with Hs-578T is 23.8 µM (inactive).

As for `CCC(=N\NC(N)=S)/C(C)=N/O`, the GI50 in the assay on M14 was > 100 µM (inactive); in the assay with NCI-H23, > 100 µM (inactive); with HCT-15, more than 100 µM; in the assay on TK-10, > 100 µM (inactive); with SK-OV-3, > 100 µM (inactive); in the assay on U-251, > 100 µM (inactive). The GI50 with ACHN, in the assay on MDA-MB-435, with CAKI-1, in the assay on NCI/ADR-RES, in the assay with OVCAR-8 and in the assay with MCF7 was > 100 µM (inactive) in each case. Further, the GI50 in the assay on DU-145, in the assay with SK-MEL-5, with NCI-H226, with OVCAR-5 and with Hs-578T was > 100 µM (inactive) each time.

On to `CC1=CC2=C(C#N)C(=O)OC2(C)C(c2ccccc2)C1` (centres undefined), for which the GI50 in the assay on M14 was > 100 µM (inactive); in the assay on HCT-15, more than 100 µM; with TK-10, > 100 µM (inactive); with SK-OV-3 it was > 100 µM (inactive); in the assay with U-251 it was > 100 µM (inactive); with A498, > 100 µM (inactive). For the same compound, the GI50 was > 100 µM (inactive) with NCI-H522; > 100 µM (inactive) in the assay on ACHN; > 100 µM (inactive) with MDA-MB-435; 72.1 µM (inactive) in the assay on NCI/ADR-RES; > 100 µM (inactive) with OVCAR-8; > 100 µM (inactive) in the assay with DU-145. Further, the GI50 with MOLT-4, in the assay on NCI-H226, with OVCAR-5 and in the assay with Hs-578T was > 100 µM (inactive) in each case.

For the compound `Cc1sc2nc3n(c(=O)c2c1C)N=CN(c1ccccc1)C3`, the GI50 was > 100 µM (inactive) in the assay on M14; > 100 µM (inactive) in the assay with NCI-H23; more than 100 µM with HCT-15; > 100 µM (inactive) in the assay on TK-10; > 100 µM (inactive) with SK-OV-3; 52.4 µM (inactive) in the assay on U-251. The GI50 is > 100 µM (inactive) in the assay with A498; 38.5 µM (inactive) in the assay with NCI-H522; 59.3 µM (inactive) with ACHN; > 100 µM (inactive) in the assay with MDA-MB-435; 36 µM (inactive) in the assay on CAKI-1; > 100 µM (inactive) with NCI/ADR-RES. Moreover, the GI50 in the assay with OVCAR-8 was 68.9 µM (inactive); in the assay on MCF7, > 100 µM (inactive); in the assay on DU-145, > 100 µM (inactive); in the assay on MOLT-4, > 100 µM (inactive); with SK-MEL-5 it was > 100 µM (inactive); with NCI-H226, > 100 µM (inactive). The GI50 in the assay with OVCAR-5 was > 100 µM (inactive).

Consider `O=C1/C(=C\c2ccc([N+](=O)[O-])cc2)N(S(=O)(=O)c2ccccc2)c2ncccc21`, for which the GI50 in the assay on M14 was 17.4 µM (inactive); in the assay with NCI-H23, 13.7 µM (inactive); in the assay on HCT-15 it was 15.7 µM; with TK-10 it was 17.5 µM (inactive); in the assay with SK-OV-3, 0.0212 µM (active); with U-251, 18.2 µM (inactive). Moreover, the GI50 in the assay on NCI-H522 was 18.3 µM (inactive); with ACHN, 15.9 µM (inactive); in the assay on MDA-MB-435 it was 21.4 µM (inactive); with CAKI-1 it was 8.18 µM (inactive); with NCI/ADR-RES it was 23.9 µM (inactive); in the assay on OVCAR-8 it was 20.9 µM (inactive). The GI50 in the assay with MCF7 was 24.7 µM (inactive); in the assay with DU-145, 27.5 µM (inactive); with MOLT-4, 3.24 µM (inactive); in the assay on SK-MEL-5, 16.8 µM (inactive); in the assay on NCI-H226 it was 22.9 µM (inactive); in the assay on Hs-578T, 31.2 µM (inactive).

`CCn1c2ccccc2c2cc(Nc3cc(C)[nH]c(=O)n3)ccc21`: the GI50 in the assay on M14 is > 100 µM (inactive); in the assay on NCI-H23 it was > 100 µM (inactive); with HCT-15, more than 100 µM; in the assay on TK-10 it was > 100 µM (inactive); in the assay with SK-OV-3, > 100 µM (inactive); with U-251 it was > 100 µM (inactive). The GI50 in the assay on A498 is > 100 µM (inactive); in the assay with NCI-H522 it was 0.916 µM (active); in the assay with ACHN, > 100 µM (inactive); with MDA-MB-435 it was 0.33 µM (active); in the assay with CAKI-1, > 100 µM (inactive); with NCI/ADR-RES it was > 100 µM (inactive). The GI50 with OVCAR-8, with MCF7, in the assay on DU-145 and in the assay on OVCAR-5 was > 100 µM (inactive) in each case.

These data come from ChEMBL document CHEMBL1201862, “PubChem BioAssay data set” (2004).
